Experimental findings from PubChem BioAssay (NCI) are described below.

Some test systems named below: ACHN renal; KM12 colon; K-562 leukemia; SK-MEL-28 melanoma; BT-549 breast; MDA-MB-435; OVCAR-3 ovarian; MDA-MB-231 breast; CAKI-1 renal; UACC-62 melanoma; SK-OV-3 ovarian; SF-539 CNS.
Holding throughout (test): inhibition of tumour cell growth, NCI panel, 48 h

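Cells were grown in 96-well plates and exposed to each compound for 48 hours at five concentrations; endpoints were interpolated linearly between bracketing concentrations, or set to the highest concentration if not reached. TGI is the concentration that stops growth completely.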

For `COc1ccc2c[n+](C)c3c4cc(OC)c(OC)cc4ccc3c2c1`, the TGI is more than 92.5 µM with ACHN renal; 3.85 µM with KM12 colon; 34.9 µM in the assay with K-562 leukemia; 40.1 µM in the assay with SK-MEL-28 melanoma; 10.8 µM in the assay on BT-549 breast; 28.4 µM in the assay on MDA-MB-435. The TGI is 17.7 µM in the assay on OVCAR-3 ovarian; 18.3 µM in the assay on MDA-MB-231 breast; more than 100 µM with CAKI-1 renal; 41.3 µM in the assay with UACC-62 melanoma; 14.7 µM in the assay with SK-OV-3 ovarian; 24.9 µM with SF-539 CNS.
Consider `O=c1c[n+](-c2ccccc2)[nH]o1`, for which the TGI in the assay on ACHN renal, with KM12 colon, in the assay on K-562 leukemia, in the assay with SK-MEL-28 melanoma, with BT-549 breast and in the assay on MDA-MB-435 was more than 100 µM each time. Moreover, the TGI in the assay on OVCAR-3 ovarian, in the assay on MDA-MB-231 breast, in the assay with CAKI-1 renal, with UACC-62 melanoma, in the assay with SK-OV-3 ovarian and in the assay on SF-539 CNS was more than 100 µM in each case.
Consider `CC1(C)CCCCCC(C)(CCCCCCCCCCCO)C1=O` (stereo not drawn), for which the TGI with ACHN renal is 25.7 µM; with KM12 colon, 32.7 µM; in the assay with K-562 leukemia, 31 µM; in the assay on SK-MEL-28 melanoma, 32 µM; with BT-549 breast, 33.8 µM; in the assay on MDA-MB-435 it was 30.9 µM. Further, the TGI in the assay with OVCAR-3 ovarian was found to be 29.9 µM; in the assay on MDA-MB-231 breast, 29.9 µM; with CAKI-1 renal, 28.6 µM; in the assay with UACC-62 melanoma it was 29.4 µM; with SK-OV-3 ovarian it was 31.7 µM; in the assay with SF-539 CNS, 30.9 µM.
Turning to `BrCCC[P+](c1ccccc1)(c1ccccc1)c1ccccc1`, the TGI in the assay with ACHN renal was more than 100 µM; with KM12 colon it was 58.1 µM; in the assay on K-562 leukemia, more than 100 µM; with SK-MEL-28 melanoma, more than 100 µM; in the assay with BT-549 breast it was more than 100 µM; in the assay with MDA-MB-435, more than 51.8 µM. The TGI with OVCAR-3 ovarian is 38.6 µM; with MDA-MB-231 breast, 86 µM; in the assay on CAKI-1 renal, more than 100 µM; with UACC-62 melanoma, 64.2 µM; in the assay on SK-OV-3 ovarian it was more than 100 µM; with SF-539 CNS, more than 100 µM.
As for `Cc1cc(N(CCC#N)CCC#N)ccc1/C(N=Nc1ccccc1)=N\NC(=O)c1ccccc1`, the TGI in the assay on ACHN renal is 41.3 µM; in the assay with KM12 colon, more than 100 µM; with K-562 leukemia it was 44.7 µM; in the assay on BT-549 breast, 77.4 µM; in the assay with MDA-MB-435, more than 100 µM; in the assay on OVCAR-3 ovarian it was more than 100 µM. Besides, the TGI is more than 100 µM in the assay on MDA-MB-231 breast; 72.6 µM in the assay on CAKI-1 renal; 45.5 µM in the assay with UACC-62 melanoma; more than 100 µM with SK-OV-3 ovarian; 54.1 µM with SF-539 CNS.
Turning to `O=C1NC(N/N=C/c2ccccc2)=N/C1=C\c1cccs1`, the TGI is 33.5 µM with ACHN renal; more than 70.9 µM with KM12 colon; more than 80.3 µM in the assay on K-562 leukemia; 37.7 µM with SK-MEL-28 melanoma; 33.6 µM in the assay on BT-549 breast; 34.6 µM in the assay on MDA-MB-435. Besides, the TGI came out at 33.9 µM with OVCAR-3 ovarian; 38.7 µM in the assay with MDA-MB-231 breast; 33.3 µM in the assay with CAKI-1 renal; 38 µM in the assay on UACC-62 melanoma; 39.1 µM in the assay with SK-OV-3 ovarian; 26.6 µM in the assay on SF-539 CNS.
Regarding `C[C@@H]1OC(=O)C[C@H]2CC(=O)N(CCC3CN(S(=O)(=O)C(F)(F)F)c4ccc(Cc5ccc6c(c5)C(CCN5C[C@H]7[C@@H](CC(=O)O[C@H]7C)CC5=O)CN6S(=O)(=O)C(F)(F)F)cc43)C[C@@H]21` (stereo partly drawn), the TGI in the assay with ACHN renal, in the assay on KM12 colon, in the assay on K-562 leukemia, in the assay with SK-MEL-28 melanoma, in the assay with BT-549 breast and in the assay on MDA-MB-435 was more than 100 µM in each case. In addition, the TGI with OVCAR-3 ovarian is more than 100 µM; with MDA-MB-231 breast, more than 100 µM; in the assay on CAKI-1 renal, more than 100 µM; in the assay on UACC-62 melanoma it was more than 100 µM; with SK-OV-3 ovarian, more than 100 µM; with SF-539 CNS, 1.84 µM.
For the compound `O=C1OC2c3ccccc3C(=O)C2(c2ccccc2)N1c1ccccc1` (stereo not drawn), the TGI in the assay on ACHN renal, in the assay with KM12 colon, in the assay on K-562 leukemia, in the assay with SK-MEL-28 melanoma, in the assay on BT-549 breast and in the assay on MDA-MB-435 was more than 200 µM each time. The TGI in the assay on OVCAR-3 ovarian, in the assay with MDA-MB-231 breast, in the assay with CAKI-1 renal, in the assay with UACC-62 melanoma, in the assay with SK-OV-3 ovarian and in the assay on SF-539 CNS was more than 200 µM throughout.
For `N#CC(C#N)=Cc1ccc(C=C2SC3=C(SCCS3)S2)s1`, the TGI is more than 100 µM with ACHN renal; more than 100 µM in the assay with KM12 colon; more than 100 µM in the assay on SK-MEL-28 melanoma; 15.2 µM with BT-549 breast; 7.37 µM in the assay on MDA-MB-435; more than 100 µM in the assay on OVCAR-3 ovarian. The TGI with MDA-MB-231 breast is more than 100 µM; in the assay with CAKI-1 renal, more than 100 µM; in the assay on UACC-62 melanoma it was more than 100 µM; with SK-OV-3 ovarian, more than 100 µM; in the assay with SF-539 CNS, 28.1 µM.
Turning to `CNC(=O)c1n[nH]n(Cc2ccccc2)c1=S`, the TGI in the assay with ACHN renal, with KM12 colon, with K-562 leukemia, in the assay with SK-MEL-28 melanoma, with BT-549 breast and in the assay with MDA-MB-435 was more than 100 µM each time. Further, the TGI in the assay on OVCAR-3 ovarian, in the assay on MDA-MB-231 breast, in the assay with CAKI-1 renal, in the assay on UACC-62 melanoma and with SK-OV-3 ovarian was more than 100 µM throughout.
Consider `COc1ccc(N2CCN(Cc3c(C(C)=O)[n+](=O)c4ccccc4n3[O-])CC2)cc1`, for which the TGI is more than 100 µM in the assay on ACHN renal; more than 100 µM in the assay on KM12 colon; more than 100 µM with K-562 leukemia; more than 100 µM in the assay with SK-MEL-28 melanoma; 53.3 µM in the assay with BT-549 breast; more than 100 µM in the assay with MDA-MB-435. Besides, the TGI in the assay on OVCAR-3 ovarian, in the assay with MDA-MB-231 breast, in the assay on CAKI-1 renal, in the assay on UACC-62 melanoma and in the assay on SK-OV-3 ovarian was more than 100 µM throughout.
